One assay has as its system HCV pseudoparticles. Nature of the assay: HCV pseudoparticle (HCVpp) entry assay in Huh7 hepatoma cells, luciferase readout. Format: cell-based, hepatitis C virus. The settings on record: for RLU units: HCVpp. In short, it runs like this: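 Huh7 cells were pre-treated with peptide for 1 h at 37 °C before exposure to HCV E1/E2-pseudotyped HIV luciferase particles made in 293T cells, followed by 72 h culture and luciferase readout. Peptides were tested at 10 points, 3-fold, from 100 ug/ml; particles lacking envelope served as non-specific entry control.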

In the next assay the test system is HIVpp. Nature of the assay: HIV pseudotyped virus (HIVpp) entry counter-screen. The format is cell-based. The settings on record: 1st and 2nd trial. The protocol: Infection of hepatoma cell lines with HCV pseudotype particles and screen for inhibitory peptides. The hepatoma cells, Huh7, was seeded at 8000 cells in 90 ul medium in 96-well plate. In the case of the inhibitor screen, the inhibitor was incubated with cells for one hour at 37° C. and then 50 ul viral supernatant was added to the cells 24 hours after seeding. The viral stock was pre-tittered and diluted to yield approximately 10,000 to 20,000 RLU. The cells were incubated at 37° C. with 5% CO2 for additional 72 hours and were harvested for luciferase assay. Peptide stocks were prepared in 100% DMSO at 10 mg/ml and were first screened at 100 ug/ml and then a dose responsive curve was generated with 10 points 3-fold titration starting from 100 ug/ml.
The specificity of the peptides were counter-screened with AMLV and HIV pseudotyped viruses using the same infection protocol.
The data points for the dose response curve of peptide […] (SEQ ID NO: 77) are shown below in tables 5A (HCVpp) and 5B (HIVpp). The peptide of SEQ ID NO: 77 was first serial diluted by the factor of 3 in 100% DMSO from 100 ug/ml and then transferred to the assay plates at 100-fold dilution. The peptide was first incubated with cells and HCVpp (A) or HIVpp (B), respectively, for 30 minutes at […] in this experiment. Then, the medium containing the peptide was removed from the cells and virus with peptide was added to the cells. Cells were incubated for 72 hours and then were harvested for luciferase assay. Two separate trials were performed.

Consider one substance from patent US20100119483A1, “PEPTIDE VIRAL ENTRY INHIBITORS” (Schering Corporation, priority 2004, published 2010).

Values joined by “and” are separate entries in the source; they are usually repeats but may differ in a detail not shown here. Identical values can stand only once.

For the substance “V-S-F-A-I-K-W-E-Y-V-L-L-L-F-L-L [SEQ ID NO: 77]”, the RLU units in the assay with HCV pseudoparticles (peptide conc. 0.091515 log ug/ml, 1st and 2nd trial) was 1044 RLU and 833 RLU; with HCV pseudoparticles (peptide conc. 0.568636 log ug/ml, 1st and 2nd trial) it was 544 RLU and 500 RLU; in the assay on HCV pseudoparticles (peptide conc. 2 log ug/ml, 1st and 2nd trial), 11 RLU and 10 RLU; with HCV pseudoparticles (peptide conc. not given, 1st trial) it was 1494 RLU; in the assay on HCV pseudoparticles (peptide conc. −0.38561 log ug/ml, 1st and 2nd trial), 1279 RLU and 1283 RLU; with HCV pseudoparticles (peptide conc. −0.86273 log ug/ml, 1st and 2nd trial) it was 1866 RLU and 1762 RLU. Further, the RLU units in the assay with HCV pseudoparticles (peptide conc. −1.33985 log ug/ml (three lines), 1st and 2nd trial) is 2564 RLU and 2703 RLU and 2998 RLU and 3512 RLU and 2090 RLU and 3359 RLU; in the assay on HIVpp (peptide conc. 0.091515 log ug/ml) it was 674698 RLU and 651004 RLU; in the assay on HIVpp (peptide conc. 0.568636 log ug/ml) it was 561454 RLU and 612198 RLU; with HIVpp (peptide conc. 1.045758 log ug/ml), 740592 RLU and 744482 RLU; in the assay on HIVpp (peptide conc. 1.522879 log ug/ml), 787025 RLU and 683636 RLU; in the assay with HIVpp (peptide conc. 2 log ug/ml), 435408 RLU and 543239 RLU. Further, the RLU units in the assay on HIVpp (peptide conc. −0.38561 log ug/ml) is 732652 RLU and 734586 RLU; in the assay on HIVpp (peptide conc. −0.86273 log ug/ml), 676303 RLU and 639921 RLU; in the assay on HIVpp (peptide conc. −1.33985 log ug/ml) it was 815312 RLU and 754404 RLU. Moreover, the HCVpp % inh in the assay with HCV pseudoparticles (peptide library screen, first screened at 100 ug/ml, cell entry inhibition vs uninhibited control) amounted to 96%.
